Columns and labels:
[1] = target: T1, SARS-CoV-2 Mpro (Severe acute respiratory syndrome coronavirus 2, UniProt P0DTD1); type: binding; conditions: for binding capacity in SPR sensorgrams (in words): Supporting Information; for SPR response units (RUs) in sensorgrams, up to: highest response in SPR sensorgrams
[2] = target: T1, SARS-CoV-2 Mpro; test: biochemical; conditions: for inhibition at 2 µM / inhibition at 10 µM / inhibition at 50 µM: read-out: inhibition of SARS-CoV-2 Mpro enzyme activity (inhibition rate)

Row | SMILES | SPR response units (RUs) in sensorgrams, up to [1] | inhibition at 2 µM [2] | inhibition at 10 µM [2] | inhibition at 50 µM [2] | further results
1 | O=c1oc2cc(O)ccc2c2ccccc12 [UB, urolithin B] | < 10 RU |  |  |  | binding capacity in SPR sensorgrams (in words) [1]: weak binding capacity
2 | O=c1c(O)c(-c2ccc(O)c(O)c2)oc2cc(O)cc(O)c12 [quercetin, reference compound] | up to 103 RU |  |  |  | 
3 | O=C(O)c1cc(O)c(O)c(O)c1 [GLA, gallic acid] | up to 30 RU |  |  |  | 
4 | O=c1oc2c(O)c(O)cc3c(=O)oc4c(O)c(O)cc1c4c23 [EA, ellagic acid] |  | 3% | 28% | 57% | 
5 | O=c1oc2cc(O)ccc2c2ccc(O)cc12 [UA, urolithin A] |  |  |  |  | binding capacity in SPR sensorgrams (in words) [1]: undetectable binding capacity
6 | Oc1cccc(O)c1O [PYG, pyrogallol] |  | 20% |  |  | reference binding signal ([1]; CM5 sensor chip): less than 10%; reference signal (reference binding RUs over binding level RUs) ([1]; PEG sensor chip): 64%
7 | O=C(OC[C@H]1O[C@@H](OC(=O)c2cc(O)c(O)c(OC(=O)c3cc(O)c(O)c(O)c3)c2)[C@H](OC(=O)c2cc(O)c(O)c(OC(=O)c3cc(O)c(O)c(O)c3)c2)[C@@H](OC(=O)c2cc(O)c(O)c(OC(=O)c3cc(O)c(O)c(O)c3)c2)[C@@H]1OC(=O)c1cc(O)c(O)c(OC(=O)c2cc(O)c(O)c(O)c2)c1)c1cc(O)c(O)c(OC(=O)c2cc(O)c(O)c(O)c2)c1 [TA, tannic acid] | up to 643 RU |  |  |  | inhibition of SARS-CoV-2 Mpro enzyme activity (inhibition rate) ([2]; 2 μM): 13%; inhibition of SARS-CoV-2 Mpro enzyme activity (inhibition rate) ([2]; 10 μM): 73%; inhibition of SARS-CoV-2 Mpro enzyme activity (inhibition rate) ([2]; 50 μM): 100%
8 | O=C(OC[C@H]1O[C@@H](OC(=O)c2cc(O)c(O)c(O)c2)[C@H](OC(=O)c2cc(O)c(O)c(O)c2)[C@@H](OC(=O)c2cc(O)c(O)c(O)c2)[C@@H]1OC(=O)c1cc(O)c(O)c(O)c1)c1cc(O)c(O)c(O)c1 [PGG, 1,2,3,4,6-penta-O-galloyl-ß-D-glucose] | ≤ 1186 RU | 14% | 73% | 100% | 
9 | O=C1O[C@H]2[C@@H]3OC(=O)c4cc(O)c(O)c(O)c4-c4c(O)c(O)c5oc(=O)c6c(c(O)c(O)c7oc(=O)c4c5c76)-c4c(cc(O)c(O)c4O)C(=O)OC[C@H]3OC(O)[C@@H]2OC(=O)c2cc(O)c(O)c(O)c2-c2c1cc(O)c(O)c2O (mixture of isomers) [PA, punicalagin] |  | 2% | 59% | 100% | 

Reference: publication PMC8491554 (Journal of agricultural and food chemistry, 2021)
